Read-outs that look alike come from different tables or passages of the source.
Key:
[1] = cited from earlier work; for LD50: modelling table; for Toxicity: toxicity grade by LD50, trailing figure = number of pesticides in group
[2] = molecular target: T1, human serum albumin (HSA) (Homo sapiens, UniProt P02768); assay: Circular dichroism spectrum, secondary structure (α-helix content) of HSA; settings: HSA 2×10^−6 M
Experimental: the mixed solution to be tested was preheated at […] for 2-5 minutes, and the CD spectrum of HSA was recorded in the wavelength range of 200-500 nm . The concentration of HSA was kept at 2×10^−6 M, and the pesticide was (0-20)×10^−6 m. Firstly, HSA was measured, and then the ratio of HSA to pesticides needed to be determined specifically, which was preliminarily determined according to the ratio of 1:1, 1:2 and 1:3.
According to the following equation, the result of CD spectrum was usually expressed as the mean residue ellipticity (MRE), and the unit was deg·cm^2·dmol^−1. MRE=ObservedCD(mdeg)/(10Cpnl) (9);
in which Cp is the molar concentration of protein, n is the number (585) of amino acid residues, and 1 is the path length (1 mm). The α helicity of free and bound HSA is calculated from MRE values using the following formula: α−Helix(%)=[(−MRE208−4000)×100]/(33000-4000) (10)
in which the MRE208 is the MRE value observed at 208 nm , 4000 is the MRE value of random coil conformation at 208 nm , and […] is the MRE value of pure α helix at 208 nm .

[3] = molecular target: T1, human serum albumin (HSA); assay: Fluorescence emission spectrum (quenching) of HSA with carbamate pesticides; assay type: binding; settings: for R (binding distance): Förster energy transfer; for fluorescence of HSA quenched by pesticide: titration of pesticide; for ΔH^0 / ΔS^0: Van't Hoff, 296-310 K
Experimental: the mixed solution to be tested was preheated at […] for 3 minutes, and the emission spectrum of HSA with carbamate pesticides was measured at 300-500 nm . The excitation wavelength was set at 280 nm , and the slit width for both excitation and emission was 15 nm; the HSA concentration was kept constant at 5×10^−7 M, and the pesticide concentration was (0-105)×10^−7 M.
The internal filtering effect of fluorescence signal was corrected according to the following formula: Fcor=Fobsexp[(Aex+Aem)/2] (1);
in this formula, Fcor and Fobs represent corrected fluorescence signal and observed fluorescence signal, respectively, and Aex and Aem represent absorbance of the mixed solution to be tested at excitation wavelength and emission wavelengths, respectively; the quenching constant, number of binding sites, binding constant, free energy and binding distance of different drugs were obtained by fluorescence emission spectra, and a BP neural network model was obtained. Specifically, they were obtained as follows:
There is a linear relationship between F0/F and [Q] to distinguish whether it is static quenching or dynamic quenching. The fluorescence quenching data are analyzed by Stern-Volmer equation to clarify the quenching mechanism: F0/F=1+KSV[Q]=1+Kqτ0[Q] (2);
in the formula, F0 and F are fluorescence signals […] quencher, respectively. Ksv is Stern-Volmer quenching constant; Kq is a quenching rate constant of biomolecules; τ0 is the average lifetime of biomolecules without quencher (about 10^−8 s); [Q] is the concentration of quencher.
The maximum dynamic quenching rate constant of all kinds of quenchers on polymers was 2.0×10^10 L·mol^−1·s^−1. Static quenching and dynamic quenching could be judged according to this value. If K^q was greater than 2.0×10^10 L·mol^−1·s^−1, it belonged to static quenching. Otherwise, it belonged to dynamic quenching.
In this part, the binding sites and binding constants between carbamate pesticides and HSA were calculated. The following formula was used to calculate the number of binding sites (n) and the binding constant (Ka) of carbamate pesticides and HSA: log[(F0−F)/F]=log Ka+nlog[Q] (3);
The interactions between biological molecules and drug molecules were weak intermolecular interactions, including hydrogen bonds, van der Waals forces, electrostatic forces and hydrophobic interactions. By using Van't Hoff equation, the thermodynamic constants of drug-protein interaction were obtained, and the main types of drug-protein interaction were judged according to the changes of binding constants under different conditions. LnK=−ΔH^0/RT+ΔS^0/R (4); ΔG^0=ΔH^0−TΔS^0 (5);
There is a relationship among energy transfer efficiency E, distance r between energy donor and energy receptor and energy transfer distance R0. E=1−F/F0=R0^6/(R0^6+r^6) (6);
E represents the transfer efficiency between donor and receptor, r is the average distance between donor and receptor, and R0 is the critical distance when the transfer efficiency is 50%. R0^6=8.79×10^−K^2N^−4φJ (7)
K^2 is the orientation related to the geometry of donor and receptor of dipole. For random orientation in fluid, K^2=2/3; N is the average refractive index of the medium in the wavelength range with obvious spectral overlap, and the refractive index of water and organic matter is 1.336; φ is the quantum yield of donor, and the quantum yield of tryptophan in HSA is about 0.118; J represents the influence of spectral overlap between the emission spectrum of the donor and the absorption spectrum of the receptor, and can be calculated by the following formula: j=ΣF(λ)ϵ(λ)λ^4Δλ/ΣF(λ) Δλ (8);
F(λ) is the corrected fluorescence signal of the donor in the wavelength range from λ to (λ+Δλ), while ϵ(λ) is the extinction coefficient of the receptor at λ.

[4] = 296 K, test-set pesticides (Table 4)
[5] = 303 K, test-set pesticides (Table 4)
[6] = 310 K, test-set pesticides (Table 4)

T1 sequence (P02768 25-609): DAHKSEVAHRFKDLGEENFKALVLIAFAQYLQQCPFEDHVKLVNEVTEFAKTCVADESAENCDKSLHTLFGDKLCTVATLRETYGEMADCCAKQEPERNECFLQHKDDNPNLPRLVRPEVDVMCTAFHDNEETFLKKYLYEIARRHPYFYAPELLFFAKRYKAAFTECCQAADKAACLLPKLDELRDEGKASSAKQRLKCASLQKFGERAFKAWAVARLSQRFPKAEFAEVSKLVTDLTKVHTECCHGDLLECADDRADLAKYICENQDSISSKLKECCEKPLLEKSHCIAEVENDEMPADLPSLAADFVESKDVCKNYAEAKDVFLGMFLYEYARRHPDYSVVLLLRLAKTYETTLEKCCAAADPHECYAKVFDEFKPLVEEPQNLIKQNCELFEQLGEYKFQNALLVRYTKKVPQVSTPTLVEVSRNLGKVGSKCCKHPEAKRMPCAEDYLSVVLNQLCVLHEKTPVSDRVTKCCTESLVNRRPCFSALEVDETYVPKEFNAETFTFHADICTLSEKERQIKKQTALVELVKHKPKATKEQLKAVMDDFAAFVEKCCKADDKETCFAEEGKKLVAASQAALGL

| SMILES | LD50 [1] | Toxicity [1] | α-helix contents ([2]; 5:1 (Pesticide:HSA)) | α-helix contents ([2]; 10:1 (Pesticide:HSA)) | Ksv (37°) ([3]; 37°, modelling table) | ΔG(37°) ([3]; 37°, modelling table) | ΔG^0 ([3]; 296 K) | Kq ([3]; 296 K, pH 7.4) | Ksv ([3]; 296 K, pH 7.4) | n (number of binding sites) ([3]; 296 K, pH 7.4) | ΔG^0 ([3]; 303 K) | Kq ([3]; 303 K, pH 7.4) | Ksv ([3]; 303 K, pH 7.4) | n (number of binding sites) ([3]; 303 K, pH 7.4) | ΔG^0 ([3]; 310 K) | R (binding distance) ([3]; 310 K) | Kq ([3]; 310 K, pH 7.4) | Ksv ([3]; 310 K, pH 7.4) | Binding distance/r ([3]; modelling table) | Number of binding sites/n ([3]; modelling table) | other results |
| --- | --- | --- | --- | --- | --- | --- | --- | --- | --- | --- | --- | --- | --- | --- | --- | --- | --- | --- | --- | --- | --- |
| CNC(=O)Oc1cc(C)cc(C(C)C)c1 [Promecarb, promecarb] | 35 mg/kg | Highly | 48.610% | 48.538% | 58172.07681 | −21.38 | -3.5213 kcal/mol | 2.409 ± 0.154 10^12 M^−1s^−1 | 2.409 ± 0.154 10^4 M^−1 | 0.645 ± 0.004 | -4.316 kcal/mol | 3.705 ± 0.060 10^12 M^−1s^−1 | 3.705 ± 0.060 10^4 M^−1 | 0.704 ± 0.008 | -5.1107 kcal/mol | 2.316 nm | 5.817 ± 0.219 10^12 M^−1s^−1 | 5.817 ± 0.219 10^4 M^−1 | 2.316 | 0.7688 | n (number of binding sites) ([3]; 310 K, pH 7.4): 0.769 ± 0.009; fluorescence of HSA quenched by pesticide ([3]; 310 K): quenched; Kd ([3]; Ka (binding constant), 296 K, pH 7.4): 2430 µM; Kd ([3]; Ka (binding constant), 303 K, pH 7.4): 822 µM; Kd ([3]; Ka (binding constant), 310 K, pH 7.4): 241 µM; ΔH^0 [3]: 30.0872 kcal/mol; ΔS^0 [3]: 475.061 J · mol^−1 · K^−1 |
| CNC(=O)Oc1cc(C)cc(C)c1 [XMC, 3,5-xylyl methylcarbamate] | 245 mg/kg | Moderately | 55.392% | 54.416% | 48304.67460 | −22.81 | -4.4097 kcal/mol | 4.145 ± 0.187 10^12 M^−1s^−1 | 4.145 ± 0.187 10^4 M^−1 | 0.734 ± 0.005 | -4.9309 kcal/mol | 4.362 ± 0.151 10^12 M^−1s^−1 | 4.362 ± 0.151 10^4 M^−1 | 0.779 ± 0.012 | -5.4522 kcal/mol | 2.033 nm | 4.830 ± 0.108 10^12 M^−1s^−1 | 4.830 ± 0.108 10^4 M^−1 | 2.033 | 0.8317 | Kd ([3]; 296 K, pH 7.4, read-out: Ka (binding constant)): 539 µM; Kd ([3]; 303 K, pH 7.4, read-out: Ka (binding constant)): 294 µM; n (number of binding sites) ([3]; 310 K, pH 7.4): 0.832 ± 0.006; Kd ([3]; 310 K, pH 7.4, read-out: Ka (binding constant)): 139 µM; fluorescence of HSA quenched by pesticide ([3]; 310 K): quenched; ΔH^0 [3]: 17.634 kcal/mol; ΔS^0 [3]: 311.582 J · mol^−1 · K^−1 |
| CNC(=O)O/N=C/C(C)(C)S(C)(=O)=O [Aldicarb-sulfone, aldicarb sulfone] | – | – | – | – | 39842.68547 | −17.29 | – | – | – | – | – | – | – | – | – | – | – | – | – | 0.6544 | n ([3]; 296 K (Table 4)): 0.582 ± 0.008; ΔG^0 ([3]; 296 K (Table 4)): -3.2622 kcal/mol; Ksv [3, 4]: 2.797 ± 0.157 10^4 M−1; n ([3]; 303 K (Table 4)): 0.624 ± 0.003; ΔG^0 ([3]; 303 K (Table 4)): -3.6977 kcal/mol; Ksv [3, 5]: 3.379 ± 0.129 10^4 M−1; n ([3]; 310 K (Table 4)): 0.654 ± 0.010; r ([3]; 310 K (Table 4)): 2.376; ΔG^0 ([3]; 310 K (Table 4)): -4.1334 kcal/mol; Ksv [3, 6]: 3.984 ± 0.197 10^4 M−1; Kd ([3]; Ka (37°), 37°, modelling table): 1210 µM; Kd ([3]; Ka, 296 K (Table 4)): 3860 µM; Kd ([3]; Ka, 303 K (Table 4)): 2200 µM |
| CCC(C)c1ccccc1OC(=O)NC (stereo not drawn) [Fenobucarb, fenobucarb] | 350 mg/kg | Moderately | – | – | 50302.85806 | −15.31 | – | – | – | – | – | – | – | – | – | – | – | – | 2.791 | 0.5672 | Actual LD50 ([1]; Table 5): 350 mg/kg; Actual LD50 ([1]; Table 6): 350 mg/kg; n ([3]; 296 K (Table 4)): 0.535 ± 0.006; ΔG^0 ([3]; 296 K (Table 4)): -3.0858 kcal/mol; Ksv [3, 4]: 3.803 ± 0.107 10^4 M−1; n ([3]; 303 K (Table 4)): 0.559 ± 0.004; ΔG^0 ([3]; 303 K (Table 4)): -3.3726 kcal/mol; Ksv [3, 5]: 4.110 ± 0.183 10^4 M−1; n ([3]; 310 K (Table 4)): 0.567 ± 0.008; r ([3]; 310 K (Table 4)): 2.791; ΔG^0 ([3]; 310 K (Table 4)): -3.6597 kcal/mol; Ksv [3, 6]: 5.030 ± 0.145 10^4 M−1; Kd ([3]; Ka (37°), 37°, modelling table): 2640 µM; Kd ([3]; Ka, 296 K (Table 4)): 5280 µM; Kd ([3]; Ka, 303 K (Table 4)): 3670 µM |
| CNC(=O)O/N=C(\C[S+](C)[O-])C(C)(C)C (stereo not drawn) [Thiofanox-sulfoxide] | – | – | 50.523% | 48.338% | – | – | -4.1427 kcal/mol | 3.284 ± 0.040 10^12 M^−1s^−1 | 3.284 ± 0.040 10^4 M^−1 | 0.707 ± 0.009 | -4.5277 kcal/mol | 4.237 ± 0.067 10^12 M^−1s^−1 | 4.237 ± 0.067 10^4 M^−1 | 0.726 ± 0.005 | -4.913 kcal/mol | 1.702 nm | 5.339 ± 0.093 10^12 M^−1s^−1 | 5.339 ± 0.093 10^4 M^−1 | – | – | Ka (binding constant) ([3]; 296 K, pH 7.4): (1.127 ± 0.100) × 10^3 M^−1; Ka (binding constant) ([3]; 303 K, pH 7.4): (1.906 ± 0.103) × 10^3 M^−1; Ka (binding constant) ([3]; 310 K, pH 7.4): (2.861 ± 0.176) × 10^3 M^−1; n (number of binding sites) ([3]; 310 K, pH 7.4): 0.746 ± 0.006; ΔH^0 [3]: 12.144 kcal/mol; ΔS^0 [3]: 230.219 J · mol^−1 · K^−1 |
| CNC(=O)O/N=C/C(C)(C)SC [Aldicarb, aldicarb] | 0.5 mg/kg | Highly | – | – | 72295.50723 | −24.42 | – | – | – | – | – | – | – | – | – | – | – | – | 2.623 | 0.8508 | Actual LD50 ([1]; Table 5): 0.5 mg/kg; Actual LD50 ([1]; Table 6): 0.5 mg/kg; Kd ([3]; 37°, modelling table, read-out: Ka (37°) (converted)): 77.3 µM; n ([3]; 296 K (Table 4)): 0.823 ± 0.002; ΔG^0 ([3]; 296 K (Table 4)): -5.321 kcal/mol; Kd ([3]; 296 K (Table 4), read-out: Ka): 119 µM; Ksv [3, 4]: 6.498 ± 0.153 10^4 M−1; n ([3]; 303 K (Table 4)): 0.837 ± 0.002; ΔG^0 ([3]; 303 K (Table 4)): -5.5786 kcal/mol; Kd ([3]; 303 K (Table 4), read-out: Ka): 93.5 µM; Ksv [3, 5]: 6.999 ± 0.079 10^4 M−1; n ([3]; 310 K (Table 4)): 0.851 ± 0.002; r ([3]; 310 K (Table 4)): 2.623; ΔG^0 ([3]; 310 K (Table 4)): -5.8363 kcal/mol; Ksv [3, 6]: 7.230 ± 0.167 10^4 M−1 |
